Assays:
physchem = conditions: buffer
Description: The reaction temperature was chosen to be 40 °C.
Glutathione (GSH) Stability Assay
• 0 min: 40% MeOH, 60% phosphate buffer pH 2.3;
• 20 min: 85% MeOH, 15% phosphate buffer pH 2.3;
• 9 min: 95% MeOH, 5% phosphate buffer pH 2.3;
• 10 min: 95% MeOH, 5% phosphate buffer pH 2.3;

SLK = target: T1, SLK (Homo sapiens, UniProt Q9H2G2); assay: DSF thermal shift assay; assay type: binding; conditions: SLK; inhibitor 10 μM, protein 2 μM; read-out: ΔTm
T1 construct: purchased in-house DSF (thermal shift) panel per Fedorov et al
Description: (§1) Differences in the melting temperature (ΔTm) were measured as described by Fedorov et al.. Purified proteins were buffered in 25 mM HEPES (pH 7.5), 500 mM NaCl and were assayed in a 384-well plate with a final protein concentration of 2 μM in 10 μL assay volume. Inhibitors were added to a final concentration of 10 μM using an ECHO 550 acoustic dispenser (Labcyte, San José, CA, USA). As a fluorescence probe, SYPRO-Orange (Molecular Probes, Eugene, OR, USA) was added in a 1:5000 dilution. Filters for excitation and emission were set to 465 nm and 590 nm, respectively. The temperature was increased from 25 °C with 3 °C/min to a final temperature of 95 °C, while scanning, using the QuantStudio5 (Applied Biosystems, Waltham, MA, USA). Data were analyzed through Boltzmann equation in the Protein Thermal Shift software (Applied Biosystems, Waltham, MA, USA). Samples were measured in technical duplicates.

MAPK6 = target: T2, MAPK6 (Homo sapiens, UniProt Q16659); assay: DSF thermal shift assay; assay type: binding; conditions: MAPK6; inhibitor 10 μM, protein 2 μM; read-out: ΔTm
T2 construct: purchased in-house DSF (thermal shift) panel per Fedorov et al
Description: as §1

NEK2 = target: T3, NEK2 (Homo sapiens, UniProt P51955); assay: DSF thermal shift assay; assay type: binding; conditions: NEK2; inhibitor 10 μM, protein 2 μM; read-out: ΔTm
T3 construct: purchased in-house DSF (thermal shift) panel per Fedorov et al
Description: as §1

STK39 = target: T4, STK39 (Homo sapiens, UniProt Q9UEW8); assay: DSF thermal shift assay; assay type: binding; conditions: STK39; inhibitor 10 μM, protein 2 μM; read-out: ΔTm
T4 construct: purchased in-house DSF (thermal shift) panel per Fedorov et al; IC50 follow-up at Reaction Biology Corp
Description: as §1

MAPK13 = target: T5, MAPK13 (Homo sapiens, UniProt O15264); assay: DSF thermal shift assay; assay type: binding; conditions: MAPK13; inhibitor 10 μM, protein 2 μM; read-out: ΔTm
T5 construct: purchased in-house DSF (thermal shift) panel per Fedorov et al
Description: as §1

DAPK1 = target: T6, DAPK1 (Homo sapiens, UniProt P53355); assay: DSF thermal shift assay; assay type: binding; conditions: DAPK1; inhibitor 10 μM, protein 2 μM; read-out: ΔTm
T6 construct: purchased in-house DSF (thermal shift) panel per Fedorov et al
Description: as §1

CAMKK2 = target: T7, CAMKK2 (Homo sapiens, UniProt Q96RR4); assay: DSF thermal shift assay; assay type: binding; conditions: CAMKK2; inhibitor 10 μM, protein 2 μM; read-out: ΔTm
T7 construct: purchased in-house DSF (thermal shift) panel per Fedorov et al
Description: as §1

EPHB3 = target: T8, EPHB3 (Homo sapiens, UniProt P54753); assay: DSF thermal shift assay; assay type: binding; conditions: EPHB3; inhibitor 10 μM, protein 2 μM; read-out: ΔTm
T8 construct: purchased in-house DSF (thermal shift) panel per Fedorov et al
Description: as §1

STK3 = target: T9, STK3 (Homo sapiens, UniProt Q13188); assay: DSF thermal shift assay; assay type: binding; conditions: STK3; inhibitor 10 μM, protein 2 μM; read-out: ΔTm
T9 construct: purchased in-house DSF (thermal shift) panel per Fedorov et al
Description: as §1

CDC42BPA = target: T10, CDC42BPA (Homo sapiens, UniProt Q5VT25); assay: DSF thermal shift assay; assay type: binding; conditions: CDC42BPA; inhibitor 10 μM, protein 2 μM; read-out: ΔTm
T10 construct: purchased in-house DSF (thermal shift) panel per Fedorov et al
Description: as §1

STK10 = target: T11, STK10 (Homo sapiens, UniProt O94804); assay: DSF thermal shift assay; assay type: binding; conditions: STK10; inhibitor 10 μM, protein 2 μM; read-out: ΔTm
T11 construct: purchased in-house DSF (thermal shift) panel per Fedorov et al
Description: as §1

PAK1 = target: T12, PAK1 (Homo sapiens, UniProt Q13153); assay: DSF thermal shift assay; assay type: binding; conditions: PAK1; inhibitor 10 μM, protein 2 μM; read-out: ΔTm
T12 construct: purchased in-house DSF (thermal shift) panel per Fedorov et al
Description: as §1

WNK1 = target: T13, WNK1 (Homo sapiens, UniProt Q9H4A3); assay: DSF thermal shift assay; assay type: binding; conditions: WNK1; inhibitor 10 μM, protein 2 μM; read-out: ΔTm
T13 construct: purchased in-house DSF (thermal shift) panel per Fedorov et al
Description: as §1

EPHA7 = target: T14, EPHA7 (Homo sapiens, UniProt Q15375); assay: DSF thermal shift assay; assay type: binding; conditions: EPHA7; inhibitor 10 μM, protein 2 μM; read-out: ΔTm
T14 construct: purchased in-house DSF (thermal shift) panel per Fedorov et al
Description: as §1

CAMK4 = target: T15, CAMK4 (Homo sapiens, UniProt Q16566); assay: DSF thermal shift assay; assay type: binding; conditions: CAMK4; inhibitor 10 μM, protein 2 μM; read-out: ΔTm
T15 construct: purchased in-house DSF (thermal shift) panel per Fedorov et al
Description: as §1

PLK4 = target: T16, PLK4 (Homo sapiens, UniProt O00444); assay: DSF thermal shift assay; assay type: binding; conditions: PLK4; inhibitor 10 μM, protein 2 μM; read-out: ΔTm
T16 construct: purchased in-house DSF (thermal shift) panel per Fedorov et al
Description: as §1

RPS6K5 = target: T17, RPS6K5 (Homo sapiens, UniProt O75582); assay: DSF thermal shift assay; assay type: binding; conditions: RPS6K5; inhibitor 10 μM, protein 2 μM; read-out: ΔTm
T17 construct: purchased in-house DSF (thermal shift) panel per Fedorov et al
Description: as §1

DCAMKL1 = target: T18, DCAMKL1 (Homo sapiens, UniProt O15075); assay: DSF thermal shift assay; assay type: binding; conditions: DCAMKL1; inhibitor 10 μM, protein 2 μM; read-out: ΔTm
T18 construct: purchased in-house DSF (thermal shift) panel per Fedorov et al
Description: as §1

MERTK = target: T19, MERTK (Homo sapiens, UniProt Q12866); assay: DSF thermal shift assay; assay type: binding; conditions: MERTK; inhibitor 10 μM, protein 2 μM; read-out: ΔTm
T19 construct: purchased in-house DSF (thermal shift) panel per Fedorov et al
Description: as §1

OSR1 = target: T20, OSR1 (Homo sapiens, UniProt O95747); assay: DSF thermal shift assay; assay type: binding; conditions: OSR1; inhibitor 10 μM, protein 2 μM; read-out: ΔTm
T20 construct: purchased in-house DSF (thermal shift) panel per Fedorov et al
Description: as §1

T15 sequence (Q16566 whole entry): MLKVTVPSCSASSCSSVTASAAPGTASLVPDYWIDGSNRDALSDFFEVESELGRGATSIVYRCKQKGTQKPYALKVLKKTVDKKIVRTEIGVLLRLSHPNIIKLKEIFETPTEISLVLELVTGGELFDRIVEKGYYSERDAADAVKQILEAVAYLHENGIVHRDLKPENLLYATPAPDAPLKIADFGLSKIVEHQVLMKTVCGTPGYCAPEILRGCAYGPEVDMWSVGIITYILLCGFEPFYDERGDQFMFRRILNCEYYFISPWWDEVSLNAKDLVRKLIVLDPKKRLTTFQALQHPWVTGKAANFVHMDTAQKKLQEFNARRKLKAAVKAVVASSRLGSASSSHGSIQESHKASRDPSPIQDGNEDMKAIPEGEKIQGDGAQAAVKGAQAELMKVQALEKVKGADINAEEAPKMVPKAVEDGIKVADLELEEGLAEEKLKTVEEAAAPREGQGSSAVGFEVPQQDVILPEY
T2 sequence (Q16659 whole entry): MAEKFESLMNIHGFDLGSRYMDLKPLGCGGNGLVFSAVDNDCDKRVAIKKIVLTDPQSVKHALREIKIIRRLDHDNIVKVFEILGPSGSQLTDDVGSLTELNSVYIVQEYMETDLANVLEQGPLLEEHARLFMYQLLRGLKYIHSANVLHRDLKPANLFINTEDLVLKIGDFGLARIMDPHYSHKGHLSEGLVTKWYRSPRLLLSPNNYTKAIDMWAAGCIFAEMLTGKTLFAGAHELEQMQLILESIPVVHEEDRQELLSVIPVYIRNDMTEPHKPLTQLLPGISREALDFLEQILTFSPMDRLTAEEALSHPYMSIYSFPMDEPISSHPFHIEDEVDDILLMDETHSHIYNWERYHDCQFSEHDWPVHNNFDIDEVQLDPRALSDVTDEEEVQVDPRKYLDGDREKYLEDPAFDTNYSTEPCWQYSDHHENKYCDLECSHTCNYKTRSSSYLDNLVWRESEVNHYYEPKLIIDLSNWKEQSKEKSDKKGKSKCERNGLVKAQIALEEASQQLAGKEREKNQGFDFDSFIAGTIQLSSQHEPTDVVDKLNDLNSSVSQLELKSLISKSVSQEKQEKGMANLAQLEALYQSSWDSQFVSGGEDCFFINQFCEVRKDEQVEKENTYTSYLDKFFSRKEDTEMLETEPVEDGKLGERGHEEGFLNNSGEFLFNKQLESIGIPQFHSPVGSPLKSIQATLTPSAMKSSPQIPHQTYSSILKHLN
T6 sequence (P53355 whole entry): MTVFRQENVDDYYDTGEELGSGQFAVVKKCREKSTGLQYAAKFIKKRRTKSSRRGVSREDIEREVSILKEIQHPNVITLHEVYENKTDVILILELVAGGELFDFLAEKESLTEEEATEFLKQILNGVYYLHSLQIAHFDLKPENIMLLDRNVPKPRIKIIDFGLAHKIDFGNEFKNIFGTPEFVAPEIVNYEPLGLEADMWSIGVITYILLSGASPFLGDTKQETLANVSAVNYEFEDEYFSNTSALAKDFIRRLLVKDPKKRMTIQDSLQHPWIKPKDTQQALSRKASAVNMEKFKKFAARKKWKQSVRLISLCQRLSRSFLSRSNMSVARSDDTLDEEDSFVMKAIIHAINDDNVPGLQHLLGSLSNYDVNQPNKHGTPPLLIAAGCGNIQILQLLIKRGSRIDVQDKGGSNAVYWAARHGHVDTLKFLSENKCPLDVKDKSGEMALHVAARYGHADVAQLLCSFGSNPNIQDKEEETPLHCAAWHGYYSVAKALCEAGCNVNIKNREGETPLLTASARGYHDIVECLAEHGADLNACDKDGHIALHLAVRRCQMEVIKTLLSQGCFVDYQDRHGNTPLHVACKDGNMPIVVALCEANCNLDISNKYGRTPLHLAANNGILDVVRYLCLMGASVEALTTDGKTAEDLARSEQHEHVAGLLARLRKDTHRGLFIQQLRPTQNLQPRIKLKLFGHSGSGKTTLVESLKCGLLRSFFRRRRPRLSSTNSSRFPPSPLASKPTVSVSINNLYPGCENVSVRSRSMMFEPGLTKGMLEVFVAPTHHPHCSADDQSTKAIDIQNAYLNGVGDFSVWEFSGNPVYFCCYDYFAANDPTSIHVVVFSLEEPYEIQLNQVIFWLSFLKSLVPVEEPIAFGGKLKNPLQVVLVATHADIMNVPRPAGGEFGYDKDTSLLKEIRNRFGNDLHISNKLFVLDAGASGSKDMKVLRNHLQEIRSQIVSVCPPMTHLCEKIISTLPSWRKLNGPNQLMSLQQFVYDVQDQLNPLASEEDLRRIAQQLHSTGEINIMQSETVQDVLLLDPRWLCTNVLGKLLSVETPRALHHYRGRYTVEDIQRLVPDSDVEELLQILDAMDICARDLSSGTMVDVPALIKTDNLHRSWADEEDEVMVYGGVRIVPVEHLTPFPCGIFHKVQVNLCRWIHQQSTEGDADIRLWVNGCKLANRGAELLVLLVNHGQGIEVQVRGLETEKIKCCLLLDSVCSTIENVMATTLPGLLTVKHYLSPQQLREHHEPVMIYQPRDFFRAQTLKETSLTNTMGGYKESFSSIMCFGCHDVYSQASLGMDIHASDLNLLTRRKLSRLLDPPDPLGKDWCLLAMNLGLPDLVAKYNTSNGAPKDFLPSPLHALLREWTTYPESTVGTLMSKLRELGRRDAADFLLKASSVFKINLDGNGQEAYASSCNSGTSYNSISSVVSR
T18 sequence (O15075 whole entry): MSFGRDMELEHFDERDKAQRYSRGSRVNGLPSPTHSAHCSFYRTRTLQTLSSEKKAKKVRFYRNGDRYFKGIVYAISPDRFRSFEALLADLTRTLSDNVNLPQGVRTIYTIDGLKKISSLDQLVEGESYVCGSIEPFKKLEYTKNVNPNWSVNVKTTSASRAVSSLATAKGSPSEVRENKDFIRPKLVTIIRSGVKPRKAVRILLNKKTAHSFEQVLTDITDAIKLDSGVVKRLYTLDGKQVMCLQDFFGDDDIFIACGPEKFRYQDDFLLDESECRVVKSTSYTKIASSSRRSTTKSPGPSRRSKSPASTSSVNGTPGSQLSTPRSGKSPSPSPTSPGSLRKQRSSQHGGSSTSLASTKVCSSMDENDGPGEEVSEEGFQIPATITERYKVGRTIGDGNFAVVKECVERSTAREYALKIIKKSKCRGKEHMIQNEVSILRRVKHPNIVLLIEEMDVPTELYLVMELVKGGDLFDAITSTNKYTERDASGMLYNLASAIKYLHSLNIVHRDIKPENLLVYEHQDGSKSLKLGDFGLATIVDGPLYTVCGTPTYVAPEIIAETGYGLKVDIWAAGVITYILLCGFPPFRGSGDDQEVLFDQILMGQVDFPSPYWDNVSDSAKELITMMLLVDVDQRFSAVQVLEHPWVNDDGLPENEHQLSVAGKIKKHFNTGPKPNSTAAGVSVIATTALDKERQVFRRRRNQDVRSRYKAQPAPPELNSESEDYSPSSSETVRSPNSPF
T16 sequence (O00444 whole entry): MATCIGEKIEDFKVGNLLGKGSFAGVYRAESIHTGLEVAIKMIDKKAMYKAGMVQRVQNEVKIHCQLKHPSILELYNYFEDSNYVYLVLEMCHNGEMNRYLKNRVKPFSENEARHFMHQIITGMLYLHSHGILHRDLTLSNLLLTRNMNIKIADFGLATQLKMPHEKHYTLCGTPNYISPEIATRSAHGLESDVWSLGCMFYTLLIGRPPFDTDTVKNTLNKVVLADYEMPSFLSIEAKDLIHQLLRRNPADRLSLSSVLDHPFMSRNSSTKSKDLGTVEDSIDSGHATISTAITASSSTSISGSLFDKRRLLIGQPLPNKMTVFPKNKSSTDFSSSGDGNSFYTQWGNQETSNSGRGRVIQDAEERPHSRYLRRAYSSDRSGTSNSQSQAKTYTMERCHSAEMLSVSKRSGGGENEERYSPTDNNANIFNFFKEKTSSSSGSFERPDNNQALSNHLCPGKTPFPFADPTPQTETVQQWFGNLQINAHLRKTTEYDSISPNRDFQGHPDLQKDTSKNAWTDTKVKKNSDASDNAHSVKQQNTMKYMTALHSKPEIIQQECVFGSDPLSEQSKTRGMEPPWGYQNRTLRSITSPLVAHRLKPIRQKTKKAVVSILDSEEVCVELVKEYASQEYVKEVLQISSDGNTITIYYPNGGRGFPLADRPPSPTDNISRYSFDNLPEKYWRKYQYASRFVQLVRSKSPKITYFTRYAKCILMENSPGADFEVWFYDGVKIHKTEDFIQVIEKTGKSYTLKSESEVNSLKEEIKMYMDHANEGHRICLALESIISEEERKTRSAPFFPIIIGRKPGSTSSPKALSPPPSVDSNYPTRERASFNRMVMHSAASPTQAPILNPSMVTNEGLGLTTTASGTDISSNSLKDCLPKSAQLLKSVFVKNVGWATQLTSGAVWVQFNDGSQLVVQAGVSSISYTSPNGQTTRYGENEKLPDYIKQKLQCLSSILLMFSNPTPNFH
T5 sequence (O15264 whole entry): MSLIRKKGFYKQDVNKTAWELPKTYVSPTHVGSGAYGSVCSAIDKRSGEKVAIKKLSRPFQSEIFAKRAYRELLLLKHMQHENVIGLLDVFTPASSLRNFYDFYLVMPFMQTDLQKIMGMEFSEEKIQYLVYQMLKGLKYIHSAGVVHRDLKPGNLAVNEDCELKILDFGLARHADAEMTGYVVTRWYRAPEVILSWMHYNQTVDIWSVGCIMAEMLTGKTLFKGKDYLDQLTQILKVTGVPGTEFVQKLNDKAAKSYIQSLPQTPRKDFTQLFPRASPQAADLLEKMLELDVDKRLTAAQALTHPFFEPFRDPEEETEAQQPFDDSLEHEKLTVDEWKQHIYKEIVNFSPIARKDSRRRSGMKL

- half-life at […] (physchem): 55 h
- ΔTm at 10 µM (SLK): 1.9 °C
- ΔTm at 10 µM (MAPK6): 0.2 °C
- ΔTm at 10 µM (NEK2): 0.1 °C
- ΔTm at 10 µM (STK39): 0.6 °C
- ΔTm at 10 µM (MAPK13): -0.6 °C
- ΔTm at 10 µM (DAPK1): -0.5 °C
- ΔTm at 10 µM (CAMKK2): 0.6 °C
- ΔTm at 10 µM (EPHB3): -0.9 °C
- ΔTm at 10 µM (STK3): -0.2 °C
- ΔTm at 10 µM (CDC42BPA): 0.3 °C
- ΔTm at 10 µM (STK10): 1.8 °C
- ΔTm at 10 µM (PAK1): -0.5 °C
- ΔTm at 10 µM (WNK1): -0.9 °C
- ΔTm at 10 µM (EPHA7): 0.5 °C
- ΔTm at 10 µM (CAMK4): 0.1 °C
- ΔTm at 10 µM (PLK4): 0.2 °C
- ΔTm at 10 µM (RPS6K5): 1.5 °C
- ΔTm at 10 µM (DCAMKL1): 0.2 °C
- ΔTm at 10 µM (MERTK): -0.1 °C
- ΔTm at 10 µM (OSR1): 0.4 °C
Structure (SMILES): CCc1cnc(Nc2nc(Cl)ccc2[N+](=O)[O-])nc1N1CCN(Cc2nc3cc(C(F)(F)F)ccc3[nH]2)CC1 [Compound 2]

Reference: paper PMC8534050, “Discovery of a Potent and Highly Isoform-Selective Inhibitor of the Neglected Ribosomal Protein S6 Kinase Beta 2 (S6K2)” (Cancers, 2021)
